Source: patent US11840532B2, “Modulators of THR-β and methods of use thereof” (ALIGOS THERAPEUTICS, INC., priority 2020, dated 2023)
pEC50: −log10 of the molar value.

Experiments:
[1] = target: T1, human thyroid receptor alpha ligand-binding domain (THRα) (Homo sapiens, UniProt P10827); test: THR Biochemical Assay (Assay 1): TR-FRET thyroid receptor coactivator assay, alpha LBD; settings: TR-FRET coactivator recruitment; for Emax: read-out: Activity category Assay 1 THRα (Emax); for pEC50: agonist EC50, read-out: Activity category Assay 1 THRα (EC50)
T1 construct: purchased Invitrogen
T1 sequence (P10827 163-410 isoform P10827-2 limits assumed, other chains not shown): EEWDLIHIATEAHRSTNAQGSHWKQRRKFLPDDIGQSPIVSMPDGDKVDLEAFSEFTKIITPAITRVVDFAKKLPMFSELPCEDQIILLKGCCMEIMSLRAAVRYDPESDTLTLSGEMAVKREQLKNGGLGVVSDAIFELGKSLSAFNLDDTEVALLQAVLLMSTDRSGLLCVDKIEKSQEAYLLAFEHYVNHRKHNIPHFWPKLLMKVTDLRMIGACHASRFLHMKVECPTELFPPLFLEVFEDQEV
Text: (§1) THR Biochemical Assay (sAsay 1)
(§2) The TR-FRET thyroid receptor beta coactivator assay was used with slight, optimized modifications of the manufacturer's protocol (Invitrogen). The assay uses a terbium-labeled anti-GST antibody, a glutathione-S-transferase (GST) tagged human thyroid receptor, beta or alpha, ligand-binding domain (LBD), and a fluorescein labeled SRC2-2 coactivator peptide. The antibody interacts with the LBD, where the agonist also binds, resulting in increased affinity for the SRC2-2 coactivator peptide causing energy transfer of the acceptor fluorophore and a FRET emission shift from 495 to 520 nm. The energy transfer is detected as an increase in the fluorescence emission of the fluorescein acceptor, and a decrease in the fluorescence emission of the terbium donor. The assay is performed in a 384-well black plate in a final volume of 20 μL. Serial dilution of various test agonists was performed in DMSO (1% final DMSO concentration) and added to the test plate. Thyroid receptor beta LBD is added to the plate at a final concentration of 1 nM, followed by the mixture of the fluorescein labeled SRC2-2 coactivator peptide, and the terbium-labeled anti-GST antibody at final concentrations of 200 nM and 2 nM respectively. The assay is incubated for 1 h at rt protected from light. The TR-FRET is then measured on a Victor multilabel reader (Perkin Elmer) using an excitation wavelength of 340 nm with emission filters of 495 nm and 520 nm. The assay is quantified by expressing a ratio (520:495) of the intensities, and the resulting activation curves; EC50 values were generated using a sigmoidal dose response (variable slope) equation in GraphPad™ Prism 8.0.

[2] = target: T2, human thyroid receptor beta ligand-binding domain (THRβ) (Homo sapiens, UniProt P10828); test: THR Biochemical Assay (Assay 1): TR-FRET thyroid receptor beta coactivator assay; settings: TR-FRET coactivator recruitment, THRβ LBD; for Emax: read-out: Activity category Assay 1 THRβ (Emax); for pEC50: agonist EC50, read-out: Activity category Assay 1 THRβ (EC50)
T2 construct: purchased Invitrogen
T2 sequence (P10828 217-461 limits assumed): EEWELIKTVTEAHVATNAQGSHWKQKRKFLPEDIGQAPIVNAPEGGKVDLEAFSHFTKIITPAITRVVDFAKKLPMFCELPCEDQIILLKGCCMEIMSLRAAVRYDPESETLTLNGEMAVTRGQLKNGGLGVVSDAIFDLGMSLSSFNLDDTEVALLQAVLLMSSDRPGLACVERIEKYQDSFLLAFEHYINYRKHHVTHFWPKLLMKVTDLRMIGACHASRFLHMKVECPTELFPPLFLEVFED
Text: as §1, §2

Huh-7 cells = test: Huh-7 Differential Gene Expression (Assay 2): CPT1A RT-qPCR; assay type: cell-based; settings: Homo sapiens, CPT1A gene expression in Huh-7 cells, 24 hr treatment, TH-depleted DMEM; for pEC50: read-out: Activity category Assay 2 EC50; for Emax: read-out: Activity category Assay 2 Emax
Protocol: Huh-7 Differential Gene Expression (Assay 2)
Fetal bovine serum (FBS) was incubated with washed resin (50 mg resin/mL FBS; resin weight is dry weight of resin prior to washing) for 5 hr at room temperature on a rotor. The FBS was separated from the resin via centrifugation and incubated with new, washed resin for 18h at room temperature on a rotor.
Cell Culture and Drug Treatment
Huh-7 cells were cultured in DMEM (10-013-CM, Corning) supplemented with 10% FBS and 1% Pen-Strep at 37° C. under 5% CO2. When 70-80% confluence was reached, the cells were removed by trypsinization. The medium was aspirated from the cell culture dish, the cell monolayer was washed with 1× PBS, and 0.05% trypsin, 0.53 mM EDTA (25-052-CV, Corning) solution was added to the dish. After 3 min incubation, the cells were detached completely by repeatedly pipetting solution onto the monolayer. Equal volume of DMEM supplemented with 10% rFBS and 1% Pen-Strep (TH-depleted DMEM) was added to the dish to inactivate the trypsin. The cell suspension was centrifuged at 350×g at room temperature for 3 min. The supernatant was aspirated out and the cell pellet was resuspended in TH-depleted DMEM. […] After 24 hr incubation, the media was replaced with treatment media. All compounds were serially diluted in DMSO and final concentrations were reached by dilution in TH-depleted DMEM (0.1% DMSO). The cells were incubated in treatment media for 24 hr. Treatments were performed in biological duplicates.
After 24 h in treatment media, the cells were lysed directly on the culture plates and cDNA was produced using the TaqMan™ Fast Advanced Cells-to-CT™ Kit (A35374, Invitrogen) and following the manufacturer's protocol. RT-qPCR for CPT1A (Hs00912671_m1) and two housekeeping genes, ACTB (Hs01060665_g1) and TFG (Hs02832013_g1), was performed using TaqMan™ Fast Advanced Master Mix. RT-qPCR reactions were run on the qTOWER^3 84 G (Analytik Jena) in technical duplicates.
ΔRn values were obtained from the qPCRsoft384 1.0 software and CPT1A gene expression was quantified via the 2ΔΔCt method. Dose-response curves were generated using GraphPad Prism 8 using four parameter logistic equation without top constraint to derive EC50 and Emax.

SMILES	Emax [1] [%]	pEC50 [1]	Emax [2] [%]	pEC50 [2]	pEC50 (Huh-7 cells)	Emax (Huh-7 cells) [%]
Cc1cc(NC(=O)c2noc(=O)[nH]2)cc(C)c1Cc1ccc2[nH]cc(C(C)C)c2n1 [Compound 3, N-(4-((3-isopropyl-1H-pyrrolo[3,2-b]pyridin-5-yl)methyl)-3,5-dimethylphenyl)-5-oxo-4,5-dihydro-1,2,4-oxadiazole-3-carboxamide]	< 50	> 7.30	< 50	> 7.30		
Cc1cc(OC(C)C(=O)O)c(C)c(C)c1Cc1ccc2[nH]cc(C(C)C)c2n1 (stereo not drawn) [Compound 7, 2-(4-((3-isopropyl-1H-pyrrolo[3,2-b]pyridin-5-yl)methyl)-2,3,5-trimethylphenoxy)propanoic acid]	< 50	< 4.60	< 50	4.60 to 6.00		
Cc1cc(OCc2noc(=O)[nH]2)c(C)c(C)c1Cc1ccc2[nH]cc(C(C)C)c2n1 [Compound 11, 3-((4-((3-isopropyl-1H-pyrrolo[3,2-b]pyridin-5-yl)methyl)-2,3,5-trimethylphenoxy)methyl)-1,2,4-oxadiazol-5(4H)-one]	< 50	< 4.60	< 50	> 7.30	6.00 to 7.00	< 50
Cc1cc(OC(F)C(=O)O)c(C)c(C)c1Cc1ccc2[nH]cc(C(C)C)c2n1 (stereo not drawn) [Compound 9, 2-fluoro-2-(4-((3-isopropyl-1H-pyrrolo[3,2-b]pyridin-5-yl)methyl)-2,3,5-trimethylphenoxy)acetic acid]	< 50	< 4.60	< 50	> 7.30		
Cc1cc(OCC(=O)O)cc(C)c1Cc1ccc2[nH]cc(C(C)C)c2n1 [Compound 2, 2-(4-((3-isopropyl-1H-pyrrolo[3,2-b]pyridin-5-yl)methyl)-3,5-dimethylphenoxy)acetic acid]	< 50	6.60 to 7.30	< 50	> 7.30	> 7.00	> 75
Cc1nc(OCC(=O)O)c(C)c(C)c1Cc1ccc2[nH]cc(C(C)C)c2n1 [Compound 6, [[5-([3-isopropyl-1H-pyrrolo[3,2-b]pyridin-5-yl]methyl)-3,4,6-trimethylpyridin-2-yl]oxy]acetic acid]	< 50	4.60 to 6.00	< 50	6.60 to 7.30	6.00 to 7.00	< 50
Cc1cc(OCC(=O)O)c(C)c(C)c1Cc1ccc2[nH]cc(C(C)C)c2n1 [Compound 1, 2-(4-((3-isopropyl-1H-pyrrolo[3,2-b]pyridin-5-yl)methyl)-2,3,5-trimethylphenoxy)acetic acid]	< 50	6.00 to 6.60	< 50	> 7.30	6.00 to 7.00	> 75
CCOC(=O)C(=O)Nc1cc(C)c(Cc2ccc3[nH]cc(C(C)C)c3n2)c(C)c1 [Compound 5, ethyl 2-((4-((3-isopropyl-1H-pyrrolo[3,2-b]pyridin-5-yl)methyl)-3,5-dimethylphenyl)amino)-2-oxoacetate]	< 50	> 7.30	< 50	> 7.30		
Cc1cc(OC(C)(C)C(=O)O)c(C)c(C)c1Cc1ccc2[nH]cc(C(C)C)c2n1 [Compound 8, 2-(4-((3-isopropyl-1H-pyrrolo[3,2-b]pyridin-5-yl)methyl)-2,3,5-trimethylphenoxy)-2-methylpropanoic acid]	< 50	< 4.60	< 50	> 7.30		
N[C@@H](Cc1cc(I)c(Oc2ccc(O)c(I)c2)c(I)c1)C(=O)O [Reference(T3), triiodothyronine, reference compound]					> 7.00	> 75
Cc1cc(NC(=O)C(=O)O)cc(C)c1Cc1ccc2[nH]cc(C(C)C)c2n1 [Compound 4, 2-((4-((3-isopropyl-1H-pyrrolo[3,2-b]pyridin-5-yl)methyl)-3,5-dimethylphenyl)amino)-2-oxoacetic acid]	< 50	> 7.30	50 to 75	> 7.30		
Cc1cc(OCc2nn[nH]n2)c(C)c(C)c1Cc1ccc2[nH]cc(C(C)C)c2n1 [Compound 10, 5-(4-((2H-tetrazol-5-yl)methoxy)-2,3,6-trimethylbenzyl)-3-isopropyl-1H-pyrrolo[3,2-b]pyridine]	< 50	< 4.60	< 50	> 7.30		
